Measured values taken from PMC9095466 (Nature, 2022).
Several values for one entry are separate records, joined by “and”; a condition that tells them apart may be missing. Equal entries are not always repeated. Where two headings read alike, the source gives them in different places.

Experiments:
human cathepsin L = biological target: T1, human cathepsin L (Homo sapiens, UniProt P07711); experiment: Protease selectivity, Ki on protease; type: biochemical; settings: mean ± s.d., max concentration 10 µM; read-out: Ki Cathepsin L
T1 construct: purchased Bio-Techne
T1 sequence (P07711 114-333): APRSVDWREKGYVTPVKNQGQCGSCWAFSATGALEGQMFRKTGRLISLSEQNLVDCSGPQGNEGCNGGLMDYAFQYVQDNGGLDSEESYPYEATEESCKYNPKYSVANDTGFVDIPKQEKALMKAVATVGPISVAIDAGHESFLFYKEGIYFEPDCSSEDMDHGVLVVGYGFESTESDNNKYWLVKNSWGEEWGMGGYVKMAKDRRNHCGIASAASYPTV

human TMPRSS2 = human TMPRSS2 (Homo sapiens, UniProt O15393); experiment: cell-based; settings: for TMPRSS2 relative activity: technical duplicates
Sequence of human TMPRSS2 (O15393 whole entry): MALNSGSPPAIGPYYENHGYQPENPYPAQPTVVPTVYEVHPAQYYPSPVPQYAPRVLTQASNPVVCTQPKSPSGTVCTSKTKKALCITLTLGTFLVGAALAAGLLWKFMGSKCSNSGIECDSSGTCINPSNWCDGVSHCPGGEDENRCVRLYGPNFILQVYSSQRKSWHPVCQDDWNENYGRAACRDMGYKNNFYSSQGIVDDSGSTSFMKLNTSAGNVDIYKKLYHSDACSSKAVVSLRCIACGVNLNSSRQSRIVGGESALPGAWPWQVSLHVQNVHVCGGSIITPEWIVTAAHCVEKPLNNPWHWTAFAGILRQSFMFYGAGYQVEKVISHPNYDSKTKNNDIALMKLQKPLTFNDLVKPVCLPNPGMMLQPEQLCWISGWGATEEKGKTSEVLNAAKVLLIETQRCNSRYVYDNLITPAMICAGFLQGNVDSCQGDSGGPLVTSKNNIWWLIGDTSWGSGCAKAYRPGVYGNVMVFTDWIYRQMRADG

Recombinant human DESC1 = biological target: T2, Recombinant human DESC1 (Homo sapiens, UniProt Q9UL52); experiment: Protease selectivity, Ki on recombinant protease; type: biochemical; settings: mean ± s.d., max concentration 10 µM; read-out: Ki DESC1
T2 construct: made in house
T2 sequence (Q9UL52 1-423): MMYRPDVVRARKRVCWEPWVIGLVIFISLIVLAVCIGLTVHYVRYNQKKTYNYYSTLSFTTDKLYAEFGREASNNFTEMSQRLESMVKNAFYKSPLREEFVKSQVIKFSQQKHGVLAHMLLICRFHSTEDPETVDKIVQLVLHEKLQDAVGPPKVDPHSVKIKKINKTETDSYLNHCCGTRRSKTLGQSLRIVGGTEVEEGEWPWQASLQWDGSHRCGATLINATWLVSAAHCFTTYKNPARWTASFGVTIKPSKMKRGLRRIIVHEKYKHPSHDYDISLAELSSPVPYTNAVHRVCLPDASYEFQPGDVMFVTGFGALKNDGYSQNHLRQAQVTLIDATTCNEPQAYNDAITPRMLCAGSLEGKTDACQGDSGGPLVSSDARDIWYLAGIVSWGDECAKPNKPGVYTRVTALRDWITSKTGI

[1] = tested on: SARS-CoV-2 lineage B strain (VIDO); experiment: microbe, parasite or virus in culture; type: cell-based
human thrombin = biological target: T3, human thrombin (Homo sapiens, UniProt P00734); experiment: Protease selectivity, Ki on protease; type: biochemical; settings: mean ± s.d., max concentration 10 µM; read-out: Ki Thrombin
T3 construct: purchased MilliporeSigma

[2] = biological target: T4, Recombinant human matriptase (Homo sapiens, UniProt Q9Y5Y6); experiment: Protease selectivity, Ki on recombinant protease; type: biochemical; settings: mean ± s.d., max concentration 10 µM; read-out: Ki Matriptase
T4 construct: made in house
T4 sequence (Q9Y5Y6 1-855): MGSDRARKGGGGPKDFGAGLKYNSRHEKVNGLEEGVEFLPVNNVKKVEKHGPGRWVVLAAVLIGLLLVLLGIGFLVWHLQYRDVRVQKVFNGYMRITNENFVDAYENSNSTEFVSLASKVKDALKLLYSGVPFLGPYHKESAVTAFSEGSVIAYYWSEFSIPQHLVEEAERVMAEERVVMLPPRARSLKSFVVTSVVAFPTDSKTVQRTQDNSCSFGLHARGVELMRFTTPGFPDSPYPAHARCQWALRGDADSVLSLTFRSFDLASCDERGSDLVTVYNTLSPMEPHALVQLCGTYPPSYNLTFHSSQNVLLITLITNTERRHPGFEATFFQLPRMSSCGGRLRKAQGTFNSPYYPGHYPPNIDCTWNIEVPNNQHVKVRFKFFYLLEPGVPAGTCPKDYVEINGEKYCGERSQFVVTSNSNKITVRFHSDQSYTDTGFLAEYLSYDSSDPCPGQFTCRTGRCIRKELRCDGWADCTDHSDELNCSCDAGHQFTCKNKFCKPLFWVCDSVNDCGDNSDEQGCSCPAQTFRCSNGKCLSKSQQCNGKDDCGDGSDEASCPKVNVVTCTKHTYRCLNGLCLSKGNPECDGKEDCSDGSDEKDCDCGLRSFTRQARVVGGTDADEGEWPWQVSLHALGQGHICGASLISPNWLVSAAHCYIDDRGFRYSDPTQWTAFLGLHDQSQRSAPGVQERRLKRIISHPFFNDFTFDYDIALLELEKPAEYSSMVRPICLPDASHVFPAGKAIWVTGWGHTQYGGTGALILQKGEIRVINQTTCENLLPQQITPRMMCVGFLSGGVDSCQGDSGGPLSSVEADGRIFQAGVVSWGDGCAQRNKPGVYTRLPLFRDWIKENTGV

Recombinant human hepsin = biological target: T5, Recombinant human hepsin (Homo sapiens, UniProt P05981); experiment: Protease selectivity, Ki on recombinant protease; type: biochemical; settings: mean ± s.d., max concentration 10 µM; read-out: Ki Hepsin
T5 construct: made in house
T5 sequence (P05981 whole entry): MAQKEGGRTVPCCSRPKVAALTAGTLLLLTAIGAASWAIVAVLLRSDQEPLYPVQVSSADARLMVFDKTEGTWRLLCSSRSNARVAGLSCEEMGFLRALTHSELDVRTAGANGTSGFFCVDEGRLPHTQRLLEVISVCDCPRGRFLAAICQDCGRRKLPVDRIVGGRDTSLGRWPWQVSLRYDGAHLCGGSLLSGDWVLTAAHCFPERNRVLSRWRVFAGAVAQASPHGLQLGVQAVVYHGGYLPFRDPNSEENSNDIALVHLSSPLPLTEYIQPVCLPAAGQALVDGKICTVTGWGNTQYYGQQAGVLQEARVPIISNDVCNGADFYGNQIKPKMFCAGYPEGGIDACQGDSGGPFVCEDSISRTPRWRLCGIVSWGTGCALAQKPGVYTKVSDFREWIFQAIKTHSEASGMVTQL

Calu-3 cells = experiment: Cytotoxicity CC50 in Calu-3 lung epithelial cells; type: cell-based, human; settings: single replicates
[3] = Cytotoxicity CC50 in Calu-3 lung epithelial cells; type: cell-based, human; settings: human, Calu-3 cells; for viability at 24 h, 3000 µM: Log [inhibitor] -2.52; for viability at 24 h, 1000 µM: Log [inhibitor] -3.00; for viability at 24 h, 300 µM: Log [inhibitor] -3.52; for viability at 24 h, 100 µM: Log [inhibitor] -4.00; for viability at 24 h, 30 µM: Log [inhibitor] -4.52; for viability at 24 h, 10 µM: Log [inhibitor] -5.00; for viability at 24 h, 3 µM: Log [inhibitor] -5.52; for viability at 24 h, 0.3 µM: Log [inhibitor] -6.52; for viability at 24 h, 0.03 µM: Log [inhibitor] -7.52; for viability at 24 h, 0.003 µM: Log [inhibitor] -8.52
Recombinant human furin = biological target: T6, Recombinant human furin (Homo sapiens, UniProt P09958); experiment: Protease selectivity, Ki on recombinant protease; type: biochemical; settings: mean ± s.d., max concentration 10 µM; read-out: Ki Furin
T6 construct: purchased Bio-Techne
T6 sequence (P09958 108-794): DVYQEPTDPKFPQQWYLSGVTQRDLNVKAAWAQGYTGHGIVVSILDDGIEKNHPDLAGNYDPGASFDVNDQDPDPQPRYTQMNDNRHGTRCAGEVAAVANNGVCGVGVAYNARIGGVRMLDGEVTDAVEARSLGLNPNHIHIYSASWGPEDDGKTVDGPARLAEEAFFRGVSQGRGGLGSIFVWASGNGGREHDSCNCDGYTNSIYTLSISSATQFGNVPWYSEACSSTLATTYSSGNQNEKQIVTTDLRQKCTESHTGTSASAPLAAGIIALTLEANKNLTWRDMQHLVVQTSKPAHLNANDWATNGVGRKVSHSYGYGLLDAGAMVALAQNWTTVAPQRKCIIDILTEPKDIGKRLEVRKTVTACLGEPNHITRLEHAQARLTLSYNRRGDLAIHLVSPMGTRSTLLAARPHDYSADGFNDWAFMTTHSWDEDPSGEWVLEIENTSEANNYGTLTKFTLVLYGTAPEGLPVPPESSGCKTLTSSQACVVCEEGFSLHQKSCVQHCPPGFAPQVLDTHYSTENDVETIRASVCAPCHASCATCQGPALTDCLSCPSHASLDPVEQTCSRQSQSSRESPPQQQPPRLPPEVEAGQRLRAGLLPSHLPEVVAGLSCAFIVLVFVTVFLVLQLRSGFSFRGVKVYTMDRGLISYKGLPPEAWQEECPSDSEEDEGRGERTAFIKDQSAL

[4] = read-out: % of Viability, Average (n=2)
[5] = single replicates, read-out: % of Viability

N=C(N)NCCCCC(=O)NC(CCC(N)=O)C(=O)NC(Cc1ccccc1)C(=O)NC(CCCNC(=N)N)C(=O)c1nc2ccccc2s1 (stereo not shown) [Compound N-0130, (H)RQFR-kbt]
Ki (human cathepsin L): > 10 µM
TMPRSS2 relative activity (human TMPRSS2; 1.00E-06 M): 5.317 and 4.665
TMPRSS2 relative activity (human TMPRSS2; 1.00E-07 M): 0.9344 and 1.227
TMPRSS2 relative activity (human TMPRSS2; 2.00E-08 M): 26.2346 and 28.2385
TMPRSS2 relative activity (human TMPRSS2; 3.20E-11 M): 95.7258 and 93.264
TMPRSS2 relative activity (human TMPRSS2; 4.00E-09 M): 48.3901 and 50.7993
TMPRSS2 relative activity (human TMPRSS2; 8.00E-10 M): 84.4379 and 85.0608
TMPRSS2 activity (%) (human TMPRSS2; Figure 1B, single experiments N1-N3): 32.9396% and 22.7789% and 30.45%
IC50 (human TMPRSS2; TMPRSS2, mean of independent experiments, Figure 1C, read-out: IC50 Mean): 0.0031 µM
IC50 (human TMPRSS2; TMPRSS2, single experiments, Figure 1C, read-out: IC50 determined from independant experiments): 0.00174 µM and 0.00287 µM and 0.0047 µM
inhibition at 0.01 µM (human TMPRSS2; Vero C1008, 10 nM compound, 24 h, vs untreated/vehicle TMPRSS2-expressing Vero E6 cells, read-out: inhibition of TMPRSS2 activity (reduction of substrate proteolysis)): 72%
IC50 (human TMPRSS2; Vero E6 cells expressing human TMPRSS2, 24 h with fluorogenic substrate, read-out: TMPRSS2 IC50 ± SD): 0.0031 ± 0.0015 µM
Ki (Recombinant human DESC1): 0.028 ± 0.01 µM
Nucleocapsid ([1]; Figure 2a, two replicates, DMSO control about 91-94): 2.419 and 11.8709
dsRNA ([1]; Figure 2a, two replicates, DMSO control about 93-95): 3.583 and 18.343
EC50 ([1]; Severe acute respiratory syndrome coronavirus 2, Calu-3, read-out: SARS-CoV-2 VIDO Nucleocapsid EC50 ± SE): 0.0301 ± 0.0301 µM
inhibition at 0.1 µM ([1]; Severe acute respiratory syndrome coronavirus 2, Calu-3, read-out: inhibition of SARS-CoV-2 infection): > 93%
Figure 2b dose-response, Mean ([1]; log [C] (nM) 0.20412): 93.6494
Figure 2b dose-response, Mean ([1]; log [C] (nM) 0.90309): 82.4234
Figure 2b dose-response, Mean ([1]; log [C] (nM) 1.60206): 39.6362
Figure 2b dose-response, Mean ([1]; log [C] (nM) 2.30103): 5.2153
Figure 2b dose-response, Mean ([1]; log [C] (nM) 3): 0.8023
Figure 2b dose-response, Mean ([1]; log [C] (nM) -0.49485): 100
Figure 2b dose-response, Mean ([1]; log [C] (nM) -1.19382): 97.2147
Ki (human thrombin): 8.23 ± 1.55 µM
Ki [2]: 0.00013 ± 3e-05 µM
Ki (Recombinant human hepsin): 0.00038 ± 0.00019 µM
% of Viability (Calu-3 cells; Log [inhibitor] -2.52): 47%
% of Viability (Calu-3 cells; Log [inhibitor] -3.00): 89%
% of Viability (Calu-3 cells; Log [inhibitor] -4.00): 94%
% of Viability (Calu-3 cells; Log [inhibitor] -5.00): 92%
% of Viability (Calu-3 cells; Log [inhibitor] -6.52): 108%
% of Viability (Calu-3 cells; Log [inhibitor] -8.52): 107%
viability at 24 h, 3000 µM [3, 4]: 44.5%
viability at 24 h, 3000 µM [3, 5]: 42%
viability at 24 h, 1000 µM [3, 4]: 86.5%
viability at 24 h, 1000 µM [3, 5]: 84%
viability at 24 h, 300 µM [3, 4]: 90.5%
viability at 24 h, 300 µM [3, 5]: 90%
viability at 24 h, 100 µM [3, 4]: 91%
viability at 24 h, 100 µM [3, 5]: 88%
viability at 24 h, 30 µM [3, 4]: 96.5%
viability at 24 h, 30 µM [3, 5]: 98%
viability at 24 h, 10 µM [3, 4]: 95%
viability at 24 h, 10 µM [3, 5]: 98%
viability at 24 h, 3 µM [3, 4]: 100%
viability at 24 h, 3 µM [3, 5]: 99%
viability at 24 h, 0.3 µM [3, 4]: 106%
viability at 24 h, 0.3 µM [3, 5]: 103%
viability at 24 h, 0.03 µM [3, 4]: 101%
viability at 24 h, 0.03 µM [3, 5]: 99%
viability at 24 h, 0.003 µM [3, 4]: 104%
viability at 24 h, 0.003 µM [3, 5]: 101%
CC50 at 24 h ([3]; unit not given for CC50, read-out: CC50): 2680 µM
Ki (Recombinant human furin): > 10 µM
